Assay results reported in patent US11440923B2, “Substituted macrocyclic indole derivatives” (Bayer Aktiengesellschaft, priority 2017, dated 2022).
pEC50, pIC50: −log10 of the molar value. Where a name gives a salt, the structure may show the parent alone. Read-outs that look alike come from different tables or passages of the source.

Key:
Assay type in all cases: cell-based
HMC-1-8 cells = assay: Antiproliferation assay HMC-1-8 (Assay 7)
Experimental: (§1) Assessment of the Anti-Proliferative Effect of Compounds in Different Cell Lines
(§2) The impact of compounds on the proliferation of different cell lines was assessed using the CellTiter-Glo® Luminescent Cell Viability reagent from Promega (G7573).
(§3) In parallel, cells were plated in a reference (day 0) plate for time zero determination. Cells were incubated in a humidified incubator at 37° C. overnight.
(§4) Rim wells were excluded. The cells were incubated for 72 h hours in a humidified incubator at 37° C. The day 0 plate was measured by adding 30 μL/well of CTG solution (CellTiter-Glo® Luminescent Cell Viability reagent, Promega G7573) to time zero wells in the reference plate followed by a 10 minutes incubation and luminescence reading at 0.1 ms. using the PHERAstar FS microplate reader (BMG Labtech).
(§5) After 72 h incubation, the treated plates were measured in the same way as the day 0 plate mentioned above. The Bella DRC Master Sheet was used to calculate IC50s, with CI=day 0 values and C0=DMSO control values.

SUDHL5 cells [1] = assay: Induction of cytotoxicity in SUDHL5 cells (Assay 6); conditions: 5 h, CellTiter-Glo, read-out: Cytotox SUDHL5 IC50 (median)
Experimental: (§6) Assay 6 Induction of Cytotoxicity Upon Treatment of Cells with Selected Compounds
(§7) In principle, compounds that induce apoptosis will concomitantly induce cell cytotoxicity. Therefore, cytotoxicity assays were run in parallel in SUDHL5 and SUDHL10 cells.
(§8) As a control, medium without cells was also added to the plate. Cells were incubated in a humidified incubator at 37° C. overnight. […] Rim wells were excluded. The cells were incubated for 5 h hours in a humidified incubator at 37° C. After this incubation, 30 μL of CellTiter-Glo® Luminescent Cell Viability reagent (Promega, G7573) was added to each well using the Multidrop Combi Reagent Dispenser, followed by 15 min incubation on a shaker at room temperature. Finally, luminescence was read at 0.1 ms, with a gain of 3000 using the PHERAstar FS microplate reader (BMG Labtech).

SUDHL10 cells [2] = assay: Induction of cytotoxicity in SUDHL10 cells (Assay 6); conditions: 5 h, CellTiter-Glo, read-out: Cytotox SUDHL10 IC50 (median)
Experimental: as §6, §7, §8

SUDHL5 cells [3] = assay: Induction of caspase-3/7 activity in SUDHL5 cells (Assay 4)
Experimental: (§9) Induction of Caspase-3/7 Activity Upon Treatment of Cells with Selected Compounds
(§10) The BH3-domain of MCL-1 sequesters pro-apoptotic proteins, thereby inhibiting apoptosis. In contrast, MCL-1 inhibitors are expected to antagonize this effect leading to an increase in apoptosis, which can be determined by measuring the activity of caspase-3/7.
(§11) The activity of caspase-3/7 was determined in DLBCL (Diffuse large B-cell lymphoma) cell lines (SUDHL5 and SUDHL10) upon treatment with different compounds, using the Caspase-Glo® 3/7 reagent from Promega (G8092).
(§12) As a control, medium without cells was also added to the plate. Cells were incubated in a humidified incubator at 37° C. overnight.
(§13) Rim wells were excluded. The cells were incubated for 3 h hours in a humidified incubator at 37° C. After this incubation, 30 μL of Caspase-Glo® 3/7 reagent (Promega G8092) was added to each well using the Multidrop Combi Reagent Dispenser, followed by 1 h incubation at 37° C. Finally, luminescence was read at 0.1 ms, with a gain of 3000 using the PHERAstar FS microplate reader (BMG Labtech).
(§14) For the evaluation of the results, the background measured with “medium-only” was subtracted from all other values. Then, the values were normalized to DMSO-only treated cells (every value was divided by the mean of the DMSO control).

SUDHL5 cells [4] = assay: Antiproliferation assay SUDHL5 (Assay 7)
Experimental: as §1, §2, §3, §4, §5

SUDHL10 cells [5] = assay: Induction of caspase-3/7 activity in SUDHL10 cells (Assay 4)
Experimental: as §9, §10, §11, §12, §13, §14

AMO-1 cells = assay: Antiproliferation assay AMO-1 (Assay 7)
Experimental: as §1, §2, §3, §4, §5

[6] = 72 h, CellTiter-Glo; read-out: Antiproli HMC-1-8 IC50 median
[7] = caspase-3/7 induction, 3 h; read-out: Caspase SUDHL5 EC50 (median)
[8] = 72 h, CellTiter-Glo; read-out: Antiproli SUDHL5 IC50 (median)
[9] = caspase-3/7 induction, 3 h; read-out: Caspase SUDHL10 EC50 (median)
[10] = 72 h, CellTiter-Glo; read-out: Antiproli AMO-1 IC50 median

Structure (SMILES) | pIC50 (HMC-1-8 cells; 72 h, CellTiter-Glo, read-out: Antiproli HMC-1-8 IC50 median) | pIC50 (SUDHL5 cells [1]; Homo sapiens, SU-DHL-5, 5 h) | pIC50 (SUDHL10 cells [2]; Homo sapiens, SU-DHL10, 5 h) | pEC50 (SUDHL5 cells [3]; Homo sapiens, SU-DHL-5, 3 h, caspase-3/7 induction, 3 h; read-out: Caspase SUDHL5 EC50 (median)) | pIC50 (SUDHL5 cells [4]; Homo sapiens, SU-DHL-5, 72 h, 72 h, CellTiter-Glo; read-out: Antiproli SUDHL5 IC50 (median)) | pEC50 (SUDHL10 cells [5]; Homo sapiens, SU-DHL10, 3 h, caspase-3/7 induction, 3 h; read-out: Caspase SUDHL10 EC50 (median)) | pIC50 (AMO-1 cells; Homo sapiens, AMO1, 72 h, 72 h, CellTiter-Glo; read-out: Antiproli AMO-1 IC50 median) | pIC50 (HMC-1-8 cells; read-out: Antiproli HMC-1-8 IC50 median; 72 h, CellTiter-Glo) | pIC50 (SUDHL5 cells [1]) | pIC50 (SUDHL10 cells [2]) | pEC50 (SUDHL5 cells [3]; read-out: Caspase SUDHL5 EC50 (median); caspase-3/7 induction, 3 h) | pIC50 (SUDHL5 cells [4]; read-out: Antiproli SUDHL5 IC50 (median); 72 h, CellTiter-Glo) | pEC50 (SUDHL10 cells [5]; read-out: Caspase SUDHL10 EC50 (median); caspase-3/7 induction, 3 h) | pIC50 (AMO-1 cells; read-out: Antiproli AMO-1 IC50 median; 72 h, CellTiter-Glo) | pIC50 (HMC-1-8 cells; [6]) | pEC50 (SUDHL5 cells [3]; [7]) | pIC50 (SUDHL5 cells [4]; [8]) | pEC50 (SUDHL10 cells [5]; [9]) | pIC50 (AMO-1 cells; [10])
CCc1c2c(nn1C)C1CCCCN1CCCCn1c(C(=O)O)c(CCCOc3cccc4ccccc34)c3ccc(Cl)c-2c31 (racemic) [Example 103, (rac)-18-chloro-1-ethyl-2-methyl-15-[3-(1-naphthyloxy)propyl]-2,3b,4,5,6,7,9,10,11,12-decahydropyrazolo[3′,4′:8,9]pyrido[1′,2′:6,7][1,6]diazacycloundecino[10,11,1-hi]indole-14-carboxylic Acid] | 4.70 | 5.96 | 5.77 | 5.85 | 5.70 | 5.66 | 5.71 |  |  |  |  |  |  |  |  |  |  |  | 
CCc1c2c(nn1C)C(CCC1CCOCC1)OCCCCn1c(C(=O)O)c(CCCOc3cccc4cc(F)ccc34)c3ccc(Cl)c-2c31 (single isomer, unassigned; enantiomer 2) [Example 64, (−)-4-chloro-3-ethyl-7-{3-[(6-fluoronaphthalen-1-yl)oxy]propyl}-2-methyl-15-[2-(oxan-4-yl)ethyl]-2,10,11,12,13,15-hexahydropyrazolo[4′,3′:9,10][1,6]oxazacycloundecino[8,7,6-hi]indole-8-carboxylic Acid—N-ethylethanamine Salt (Enantiomer 2)] |  |  |  |  |  |  |  | 5.12 | 6.09 | 5.59 | 6.13 | 5.80 | 5.89 | 5.99 |  |  |  |  | 
CCc1c2c(nn1C)C(CCN(C)C)OCCCCn1c(C(=O)O)c(CCCOc3cccc4cc(F)ccc34)c3ccc(Cl)c-2c31 (single isomer, unassigned) [Example 83, 4-chloro-15-[2-(dimethylamino)ethyl]-3-ethyl-7-{3-[(6-fluoronaphthalen-1-yl)oxy]propyl}-2-methyl-2,10,11,12,13,15-hexahydropyrazolo[4′,3′:9,10][1,6]oxazacycloundecino[8,7,6-hi]indole-8-carboxylic Acid] |  |  |  |  |  |  |  |  | 6.57 | 6.48 |  |  |  |  | 5.06 | 6.64 | 6.38 | 6.47 | 6.19
CCc1c2c(nn1C)C(CCN1CCOCC1)N(C)CCCCn1c(C(=O)O)c(CCCOc3cccc4ccccc34)c3ccc(Cl)c-2c31 (racemic) [Example 100, (rac)-4-chloro-3-ethyl-2,14-dimethyl-(15-rac)-[2-(morpholin-4-yl)ethyl]-7-{3-[(naphthalen-1-yl)oxy]propyl}-10,11,12,13,14,15-hexahydro-2H-pyrazolo[3′,4′:8,9][1,6]diazacycloundecino[10,11,1-hi]indole-8-carboxylic] |  |  |  |  |  |  |  |  | 6.47 | 6.49 |  |  |  |  | 5.45 | 6.68 | 6.59 | 6.64 | 6.65
CCc1c2c(nn1C)C(CCN(C)C)OCCCCn1c(C(=O)O)c(CCCOc3cccc4cc(F)ccc34)c3ccc(Cl)c-2c31 (single isomer, unassigned) [Example 84, 4-chloro-15-[2-(dimethylamino)ethyl]-3-ethyl-7-{3-[(6-fluoronaphthalen-1-yl)oxy]propyl}-2-methyl-2,10,11,12,13,15-hexahydropyrazolo[4′,3′:9,10][1,6]oxazacycloundecino[8,7,6-hi]indole-8-carboxylic Acid] |  |  |  |  |  |  |  |  | 5.77 | 5.36 |  |  |  |  | < 4.48 | 5.74 | 5.51 | 5.27 | 5.02
CCc1c2c(nn1C)C(CCN(C)C)OCCCCn1c(C(=O)O)c(CCCOc3cccc4cc(F)ccc34)c3ccc(Cl)c-2c31 (single isomer, unassigned) [Example 82, 4-chloro-15-[2-(dimethylamino)ethyl]-3-ethyl-7-{3-[(6-fluoronaphthalen-1-yl)oxy]propyl}-2-methyl-2,10,11,12,13,15-hexahydropyrazolo[4′,3′:9,10][1,6]oxazacycloundecino[8,7,6-hi]indole-8-carboxylic Acid] |  |  |  |  |  |  |  |  | 5.59 | 5.51 |  |  |  |  | < 4.48 | 5.57 | 5.38 | 5.35 | 5.12
CCc1c2c(nn1C)C(CCN1CC(F)(F)C1)OCCCCn1c(C(=O)O)c(CCCOc3cccc4cc(F)ccc34)c3ccc(Cl)c-2c31 (single isomer, unassigned; (-)) [Example 79, (−)-4-chloro-15-[2-(3,3-difluoroazetidin-1-yl)ethyl]-3-ethyl-7-{3-[(6-fluoronaphthalen-1-yl)oxy]propyl}-2-methyl-2,10,11,12,13,15-hexahydropyrazolo[4′,3′:9,10][1,6]oxazacycloundecino[8,7,6-hi]indole-8-carboxylic Acid—N-ethylethanamine Salt] |  |  |  |  |  |  |  |  | 5.39 | 5.42 |  |  |  |  | 4.63 | 5.43 | 5.66 | 5.27 | 5.43
